Source: US20230141600A1, “IMIDAZOPYRAZINE DERIVATIVES” (priority 2020, published 2023)
Counter-ions that a name gives are not always drawn.

System: Acinetobacter baumannii ATCC17961
Test: 90% growth inhibitory concentration (IC90) determination, antimicrobial susceptibility testing
Format: cell-based
Conditions: 90% growth inhibition, Iso-Sensitest broth, OD 600 nm over 16 h, 35±2° C.; read-out: ATCC 17961 IC90
Protocol: Antimicrobial Susceptibility Testing:
90% Growth Inhibitory Concentration (IC90) Determination
The in vitro antimicrobial activity of the compounds was determined according to the following procedure:
The assay used a 10-points Iso-Sensitest broth medium to measure quantitatively the in vitro activity of the compounds against Acinetobacter baumannii ATCC17961 and ATCC17978.
Stock compounds in DMSO were serially twofold diluted (e.g. range from 50 to 0.097 μM final concentration) in 384 wells microtiter plates and inoculated with 49 μl the bacterial suspension in Iso-Sensitest medium to have a final cell concentration of ˜5×10^(5) CFU/ml in a final volume/well of 50 ul/well. Microtiter plates were incubated at 35±2° C.
Bacterial cell growth was determined with the measurement of optical density at λ=600 nm each minutes over a time course of 16 h. Growth inhibition was calculated during the logarithmic growth of the bacterial cells with determination of the concentration inhibiting 50% (IC50) and 90% (IC90) of the growth.
Table 2 provides the 90% growth inhibitory concentrations (IC90) in micromoles per liter of the compounds of present invention obtained against the strain Acinetobacter baumannii ATCC17961.

| SMILES | IC90 [nM] |
| --- | --- |
| CCc1cc(Nc2nccn3c(-c4ccc(OC)c(F)c4F)cnc23)ccc1C(=O)NCC[C@H](NC(=O)C1CC[N+](C)(CC2CNC2)CC1)C(=O)OC (mixture of isomers) [Example 121, Methyl (2S)-2-[[1-(azetidin-3-ylmethyl)-1-methyl-piperidin-1-ium-4-carbonyl]amino]-4-[[4-[[3-(2,3-difluoro-4-methoxy-phenyl)imidazo[1,2-a]pyrazin-8-yl]amino]-2-ethyl-benzoyl]amino]butanoate formate 2,2,2-trifluoroacetate (Mixed Salt)] | 854 |

Same assay, conditions: Acinetobacter baumannii, ATCC17961, 16 h, 90% growth inhibition, Iso-Sensitest broth, OD 600 nm over 16 h, 35±2° C.; read-out: ATCC 17961 IC90

| SMILES | IC90 [nM] |
| --- | --- |
| CCc1cc(Nc2nccn3c(-c4ccc(OC)c(F)c4F)cnc23)ccc1C(=O)NCCCNC(=O)CC1CC[N+](C)(CC2CNC2)CC1 (centres unmarked) [Example 131, N-[3-[[2-[1-(Azetidin-3-ylmethyl)-1-methyl-piperidin-1-ium-4-yl]acetyl]amino]propyl]-4-[[3-(2,3-difluoro-4-methoxy-phenyl)imidazo[1,2-a]pyrazin-8-yl]amino]-2-ethyl-benzamide bis(2,2,2-trifluoroacetate)] | 114 |
| CCc1cc(Nc2nccn3c(-c4ccc(OC)c(F)c4F)cnc23)ccc1C(=O)N[C@H]1[C@@H]2C[N+](C)(CC3CNC3)C[C@@H]21 (mixture of isomers) [Example 137, 4-[[3-(2,3-Difluoro-4-methoxy-phenyl)imidazo[1,2-a]pyrazin-8-yl]amino]-2-ethyl-N-[rac-(1S,5R)-3-(azetidin-3-ylmethyl)-3-methyl-3-azoniabicyclo[3.1.0]hexan-6-yl]benzamide bis(2,2,2-trifluoroacetate)] | 1220 |
| COc1ccc(-c2cnc3c(Nc4ccc(C(=O)N[C@H]5CC[C@@H](NC(=O)C[N+](C)(C)C)CC5)c(C)c4)nccn23)c(F)c1F [Example 63, 2-(((1s,4s)-4-(4-((3-(2,3-Difluoro-4-methoxyphenyl)imidazo[1,2-a]pyrazin-8-yl)amino)-2-methylbenzamido)cyclohexyl)amino)-N,N,N-trimethyl-2-oxoethan-1-aminium Chloride] | 81.1 |
| CCc1cc(Nc2nccn3c(-c4cn(CC#N)nc4C(F)(F)F)cnc23)ccc1C(=O)NCCOCC[N+]1(CC#N)CCCC1 [Example 4, 1-(Cyanomethyl)-1-(2-(2-(4-((3-(1-(cyanomethyl)-3-(trifluoromethyl)-1H-pyrazol-4-yl)imidazo[1,2-a]pyrazin-8-yl)amino)-2-ethylbenzamido)ethoxy)ethyl)pyrrolidin-1-ium Formate] | 267 |
| C[N+]1(CC2CCNC2)CCC(C(=O)N2CCN(C(=O)c3ccc(Nc4nccn5c(-c6ccc(OC(F)F)c(F)c6F)cnc45)cc3F)CC2)CC1 (centres unmarked) [Example 103, [4-[[3-[4-(Difluoromethoxy)-2,3-difluoro-phenyl]imidazo[1,2-a]pyrazin-8-yl]amino]-2-fluoro-phenyl]-[4-[1-methyl-1-(pyrrolidin-3-ylmethyl)piperidin-1-ium-4-carbonyl]piperazin-1-yl]methanone 2,2,2-trifluoroacetate] | 77.9 |
| CCc1cc(Nc2nccn3c(-c4ccc(OC)c(F)c4F)cnc23)ccc1C(=O)NCC1CC[N+](C)(CC(=O)O)CC1 (centres unmarked) [Example 115, 2-[4-[[[4-[[3-(2,3-Difluoro-4-methoxy-phenyl)imidazo[1,2-a]pyrazin-8-yl]amino]-2-ethyl-benzoyl]amino]methyl]-1-methyl-piperidin-1-ium-1-yl]acetic acid 2,2,2-trifluoroacetate] | 205 |
| Cc1cc(Nc2nccn3c(-c4cn(CC#N)nc4C(F)(F)F)cnc23)ccc1C(=O)N1CCN(C(=O)C[N+](C)(C)C)CC1 [Example 64, [2-[4-[4-[[3-[1-(Cyanomethyl)-3-(trifluoromethyl)pyrazol-4-yl]imidazo[1,2-a]pyrazin-8-yl]amino]-2-methyl-benzoyl]piperazin-1-yl]-2-oxo-ethyl]-trimethyl-ammonium Formate] | 780 |
| CCc1cc(Nc2nccn3c(-c4ccc(OC(F)F)c(F)c4F)cnc23)ccc1C(=O)N1CCC(C(=O)N2CC[N+](C)(CC3CCNC3)CC2)CC1 (centres unmarked) [Example 97, [4-[[3-[4-(Difluoromethoxy)-2,3-difluoro-phenyl]imidazo[1,2-a]pyrazin-8-yl]amino]-2-ethyl-phenyl]-[4-[4-methyl-4-(pyrrolidin-3-ylmethyl)piperazin-4-ium-1-carbonyl]-1-piperidyl]methanone 2,2,2-trifluoroacetate] | 205 |
| CCc1cc(Nc2nccn3c(-c4ccc(OC(F)F)c(F)c4F)cnc23)ccc1C(=O)N1CCN(C(=O)C2CC[N+](C)(CC(N)=O)CC2)CC1 (centres unmarked) [Example 9, 1-(2-amino-2-oxoethyl)-4-(4-(4-((3-(4-(difluoromethoxy)-2,3-difluorophenyl)imidazo[1,2-a]pyrazin-8-yl)amino)-2-ethylbenzoyl)piperazine-1-carbonyl)-1-methylpiperidin-1-ium Formate] | 63.5 |
| CCc1cc(Nc2nccn3c(-c4ccc(OC)c(F)c4F)cnc23)ccc1C(=O)NCCCCC[N+](C)(CC(=O)O)CC1CNC1 (centres unmarked) [Example 106, Azetidin-3-ylmethyl-(carboxymethyl)-[5-[[4-[[3-(2,3-difluoro-4-methoxy-phenyl)imidazo[1,2-a]pyrazin-8-yl]amino]-2-ethyl-benzoyl]amino]pentyl]-methyl-ammonium Formate] | 241 |
| CCc1cc(Nc2nccn3c(-c4ccc(OC)c(F)c4F)cnc23)ccc1C(=O)NCC1CC[N+](C)(CC2CNC2)CC1 (centres unmarked) [Example 134, N-[[1-(Azetidin-3-ylmethyl)-1-methyl-piperidin-1-ium-4-yl]methyl]-4-[[3-(2,3-difluoro-4-methoxy-phenyl)imidazo[1,2-a]pyrazin-8-yl]amino]-2-ethyl-benzamide; 2,2,2-trifluoroacetate bis(2,2,2-trifluoroacetate)] | 350 |
| COc1ccc(-c2cnc3c(Nc4ccc(C(=O)NCCC[N+](C)(C)CCO)c(Cl)c4)nccn23)c(F)c1F [Example 73, 3-(2-chloro-4-((3-(2,3-difluoro-4-methoxyphenyl)imidazo[1,2-a]pyrazin-8-yl)amino)benzamido)-N-(2-hydroxyethyl)-N,N-dimethylpropan-1-aminium Formate] | 121 |
| COc1ccc(-c2cnc3c(Nc4ccc(C(=O)NC5CCCN(C(=O)C[N+](C)(C)C)C5)c(C)c4)nccn23)c(F)c1F (centres unmarked) [Example 68, 2-(3-(4-((3-(2,3-Difluoro-4-methoxyphenyl)imidazo[1,2-a]pyrazin-8-yl)amino)-2-methylbenzamido)piperidin-1-yl)-N,N,N-trimethyl-2-oxoethan-1-aminium Chloride] | 168 |
| CCc1cc(Nc2nccn3c(-c4cn(CC(F)F)nc4C(F)(F)F)cnc23)ccc1C(=O)NCCCCC[N+](C)(C)CC(=O)O [Example 113, Carboxymethyl-[5-[[4-[[3-[1-(2,2-difluoroethyl)-3-(trifluoromethyl)pyrazol-4-yl]imidazo[1,2-a]pyrazin-8-yl]amino]-2-ethyl-benzoyl]amino]pentyl]-dimethyl-ammonium Formate] | 2480 |
| CCc1cc(Nc2nccn3c(-c4ccc(OC)c(F)c4F)cnc23)ccc1C(=O)NCC1CC[N+](CCO)(CC2CNC2)CC1 (centres unmarked) [Example 141, N-[[1-(Azetidin-3-ylmethyl)-1-(2-hydroxyethyl)piperidin-1-ium-4-yl]methyl]-4-[[3-(2,3-difluoro-4-methoxy-phenyl)imidazo[1,2-a]pyrazin-8-yl]amino]-2-ethyl-benzamide 2,2,2-trifluoroacetate] | 169 |
| CCc1cc(Nc2nccn3c(-c4ccc(OC(F)F)c(F)c4F)cnc23)ccc1C(=O)NCC1C2C[N+](C)(CC3CNC3)CC12 (centres unmarked) [Example 80, N-[[3-(azetidin-3-ylmethyl)-3-methyl-3-azoniabicyclo[3.1.1]hexan-6-yl]methyl]-4-[[3-[4-(difluoromethoxy)-2,3-difluoro-phenyl]imidazo[1,2-a]pyrazin-8-yl]amino]-2-ethyl-benzamide bis(2,2,2-trifluoroacetate)] | 95.9 |

Same assay, conditions: Acinetobacter baumannii, ATCC17961, 16 h, read-out: ATCC 17961 IC90

| SMILES | IC90 [nM] |
| --- | --- |
| C[N+](C)(C)CC(=O)N[C@H]1C[C@@H](NC(=O)c2ccc(Nc3nccn4c(-c5c[nH]nc5C(F)(F)F)cnc34)cc2Cl)C1 [Example 61, [2-[[3-[[2-Chloro-4-[[3-[3-(trifluoromethyl)-1H-pyrazol-4-yl]imidazo[1,2-a]pyrazin-8-yl]amino]benzoyl]amino]cyclobutyl]amino]-2-oxo-ethyl]-trimethyl-ammonium Formate] | 478 |
| CCc1cc(Nc2nccn3c(-c4ccc(OC(F)F)c(F)c4F)cnc23)ccc1C(=O)NCCCNC(=O)C1CC[N+](C)(CC2CCNC2)CC1 (centres unmarked) [Example 82, N-[3-[[4-[[3-[4-(Difluoromethoxy)-2,3-difluoro-phenyl]imidazo[1,2-a]pyrazin-8-yl]amino]-2-ethyl-benzoyl]amino]propyl]-1-methyl-1-(pyrrolidin-3-ylmethyl)piperidin-1-ium-4-carboxamide bis (2,2,2-trifluoroacetate)] | 110 |
| CCc1cc(Nc2nccn3c(-c4ccc(OC)c(F)c4F)cnc23)ccc1C(=O)NCC1CCN(C(=O)C2CC[N+](C)(CC3CNC3)CC2)CC1 (centres unmarked) [Example 133, N-[[1-[1-(Azetidin-3-ylmethyl)-1-methyl-piperidin-1-ium-4-carbonyl]-4-piperidyl]methyl]-4-[[3-(2,3-difluoro-4-methoxy-phenyl)imidazo[1,2-a]pyrazin-8-yl]amino]-2-ethyl-benzamide bis(2,2,2-trifluoroacetate)] | 334 |
